Test results taken from US12226410B2, “Methods for enhancing cellular clearance of pathological molecules via activation of the cellular protein ykt6” (NORTHWESTERN UNIVERSITY, priority 2019, dated 2025).

Columns and labels:
GCase [1] = assay: Analysis of post-ER GCase (endo H resistance) in FTI-treated cultures; type: cell-based, human; conditions: A53T iPSn and SHSY5Y cells
Description: FIGS. 5A, 5B, 5C, 5D, 5E, 5F, and 5G. Reducing farnesyl-ykt6 enhances SNARE assembly and improves the lysosomal targeting of GCase. 5A) Ykt6 membrane shift analysis of SH-SY5Y cells expressing GFP-ykt6 wt or CS (n=3). 5B) Co-IP of GFP-ykt6 and bet1 in A53T iPSn (n=3). 5C) Ykt6 membrane shift analysis in FTI-treated SH-SY5Y wt a-syn cells or A53T iPSn (5 nM farnesyltransferase inhibitors (FTI) LNK-754 (FTI-1) or LNK-3248 (FTI-2) for 5 days) (n=4). Sec22b was measured to assess specificity. 5D) SEC/western blot of FTI-1 treated SH-SY5Y cells. Quantification is shown below. 5E) Co-IP of GFP-ykt6 wt or mutant ykt6-SS, (cannot be palmitoylated or farnesylated) in FTI-treated SHSY5Y cells (5 nM LNK-754, 5d) (n=2). […]
FIGS. 14A, 14B, 14C, 14D, 14E, 14F, and 14G. […] 14A) Farnesylation of ykt6 was measured in SH-SY5Y cells expressing GFP-ykt6. […] Biotin was detected with streptavidin-conjugated IRDye800, and normalized to total levels of GFP-ykt6. […] Ykt6 complex levels eluting at ca. 120A were quantified on the right (n=2). […] 14E) Raw quantification data of LAMP2A immunofluorescence intensity of individual cells from H4 cells treated with FTI, +/−ykt6 KD. […] For all quantifications, values are the mean+/−SEM, *p<0.05.
(§1) Analysis of post-ER GCase. […] Endo H resistant bands migrating at 62-64 kDa were measured as post-ER forms of GCase, and normalized to GAPDH levels. […]

TH protein = assay: FTI treatment of DASYN53 mice: midbrain TH levels; type: in vivo; conditions: i.p. 0.9 mg/kg, 26d
From the text: FIGS. 8A, 8B, 8C, 8D, 8E, and 8F. FTI treatment enhances GCase activity and reduces pathological a-syn in transgenic mice. 8A) GCase activity in the midbrain of FTI (LNK-754)-treated DASYN53 mice (treated as in FIG. 7) (n=4, veh; n=5, FTI). 8B & 8C) Quantification of soluble and insoluble a-syn from midbrains of FTI-treated DASYN53 mice normalized to total protein (CBB). Syn211 is selective for human (hu) a-syn; C20 and syn303 detect mouse (ms) and hu a-syn, (n=3, nTg+Veh; n=4, DASYN53+veh; n=5 DASYN53+FTI). 8D) Midbrain TH levels were quantified by western blot of FTI-treated DASYN53 mice (n=3). 8E) Body weight of FTI-treated DASYN53 mice (n=9, nTg+Veh; n=7, DASYN53+veh; n=7 DASYN53+FTI). 8F) Rotarod test of FTI-treated DASYN53 mice (n=12, nTg+Veh; n=7, DASYN53+veh; n=7 DASYN53+FTI). Values are the mean+/−SEM. *p<0.05, **p<0.01, and *** p<0.001. Student's t-test, panel A; ANOVA with Tukey's posthoc test, panels B-F.
Treatment of C57Bl/6 and DASYN53 mice with farnesyltransferase inhibitors. 3 mo old C57BL6 mice were i.p. injected daily with 0.9 mg/kg LNK-754 that was formulated in a vehicle of 0.5% sodium carboxymethylcellulose and filtered before use for 14 days. DASYN53 mice were i.p. injected daily with 0.9 mg/kg LNK-754 as above. Mice were perfused with PBS and the brains (cortex) were rapidly dissected and frozen until analysis. […]

GCase [2] = assay: FTI treatment of DASYN53 mice: GCase maturation and activity in midbrain; type: in vivo; conditions: i.p. 0.9 mg/kg, 26d
Description: FIGS. 7A, 7B, 7C, 7D, and 7E. FTI treatment restores functional membrane-associated ykt6 complexes in DASYN53 mice. 7A) Immunohistochemistry in the midbrain of mice showing ykt6, tyrosine hydroxylase (TH), NeuN, and nuclei (DAPI). Scale bar, 50 μm. 7B) Ykt6 membrane shift analysis in olfactory bulbs of FTI (LNK-754)-injected DASYN53 mice (12-14 months, i.p. 26d, 0.9 mg/kg) (n=5, non-transgenic (nTg)+veh; n=4, DASYN53+veh; n=4 DASYN53+FTI). GAPDH and sec22b are loading controls. 7C) SEC/western blot analysis of midbrains of FTI-treated DASYN53 mice. Inputs are shown on the left. NSE is a loading control. […] (n=3, nTg+veh; n=4, DASYN53+veh; n=4 DASYN53+FTI). 7D) Quantification of complexes from SEC in 7C. 7E) GCase maturation was assessed in midbrain lysates by endo H resistance (n=4, nTg+veh; n=4, DASYN53+veh; n=4 DASYN53+FTI). For all quantifications, each point represents a measurement from an individual animal. […]
FIGS. 8A, 8B, 8C, 8D, 8E, and 8F. […] 8B & 8C) Quantification of soluble and insoluble a-syn from midbrains of FTI-treated DASYN53 mice normalized to total protein (CBB). […] 8D) Midbrain TH levels were quantified by western blot of FTI-treated DASYN53 mice (n=3). […]
as §1

C#Cc1cccc(-c2cc(=O)n(C)c3ccc([C@](O)(c4ccc(Cl)cc4)c4cncn4C)cc23)c1 [LNK-754]
mature, endo H-resistant GCase (GCase [1]): significantly elevated
TH levels in midbrain (TH protein): partially restore TH levels
enhancement of GCase activity in midbrain (GCase [2]): ca. 40%
GCase trafficking (mature, endo H resistant forms) (GCase [2]; midbrain lysates): enhanced GCase trafficking
